# Measured values from patent US6051605A, “Method of treating psychosis and schizophrenia” (priority 1999, dated 2000).
# Structures can show the parent of a compound that is named as a salt.
# Molecular target: T1, human recombinant dopamine D4.2 receptor (Homo sapiens, UniProt P21917, DEL265-296)
# T1 construct: expressed in transfected cells; membranes
# T1 sequence (P21917 with tags, fused parts or gaps DEL265-296): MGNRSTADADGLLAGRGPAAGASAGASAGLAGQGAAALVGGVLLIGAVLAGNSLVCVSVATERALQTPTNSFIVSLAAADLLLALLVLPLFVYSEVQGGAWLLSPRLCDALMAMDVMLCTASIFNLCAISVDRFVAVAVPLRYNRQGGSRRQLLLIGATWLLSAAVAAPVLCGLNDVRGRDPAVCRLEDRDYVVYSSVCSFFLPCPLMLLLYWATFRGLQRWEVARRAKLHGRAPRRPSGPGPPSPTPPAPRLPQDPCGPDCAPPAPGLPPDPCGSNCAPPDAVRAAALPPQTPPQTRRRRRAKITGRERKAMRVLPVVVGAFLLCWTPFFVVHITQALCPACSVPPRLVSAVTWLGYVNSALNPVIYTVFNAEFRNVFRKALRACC
# Experiment: Receptor binding assay, D4.2 dopamine receptor ([3H]spiperone competition)
row,Ki [nM],SMILES
1,26.9,"Cc1ccc(OCCNCCCOc2ccc(Br)cc2)cc1 [Example 3b, [3-(4-Bromo-phenoxy)-propyl]-(2-p-tolyloxy-ethyl)-amine hydrochloride]"
2,5.6,"Cc1ccc(OCCCNCCOc2ccc(Cl)cc2)cc1 [Example 3e, [2-(4-Chloro-phenoxy)-ethyl]-(3-p-tolyloxy-propyl)-amine hydrochloride]"
3,2.7,"Cc1ccc(OCCCNCCOc2ccccc2)cc1 [Example 3f, (2-Phenoxy-ethyl)-(3-p-tolyloxy-propyl)-amine hydrochloride]"
4,37.8,"Clc1ccc(OCCNCCCOc2ccc(Br)cc2)cc1 [Example 3g, [3-(4-Bromo-phenoxy)-propyl]-[2-(4-chloro-phenoxy)-ethyl]-amine hydrochloride]"
5,45.8,"Brc1ccc(OCCCNCCCOc2ccc(Br)cc2)cc1 [Example 4a, Bis-[3-(4-bromo-phenoxy)-propyl]-amine hydrochloride]"
6,136,"Cc1ccc(OCCCNCCCOc2ccc(C)cc2)cc1 [Example 4b, Bis(3-p-tolyloxy-propyl)-amine hydrochloride]"
7,0.96,"Cc1ccc(OCCNCCCOc2ccc(F)cc2)cc1 [Example 4c, [3-(4-Fluoro-phenoxy)-propyl]-(2-p-tolyloxy-ethyl)-amine hydrochloride]"
8,30,"Cc1ccc(SCCNCCCOc2ccccc2)cc1 [Example 4d, (3-Phenoxy-propyl)-(2-p-tolylsulfanyl-ethyl)-amine hydrochloride]"
9,33.1,"Clc1ccc(SCCNCCCOc2ccccc2)cc1 [Example 4e, [2-(4-Chloro-phenylsulfanyl)-ethyl]-(3-phenoxy-propyl)-amine hydrochloride]"
10,1.7,"Clc1ccc(OCCNCCCSc2ccccc2)cc1 [Example 4f, [2-(4-Chloro-phenoxy)-ethyl]-(3-phenylsulfanyl-propyl)-amine hydrochloride]"
11,1.2,"Cc1ccc(OCCNCCCSc2ccccc2)cc1 [Example 4g, (3-Phenylsulfanyl-propyl)-(2-p-tolyloxy-ethyl)-amine hydrochloride]"
12,0.84,"Fc1ccc(OCCCNCCOc2ccc(Cl)cc2)cc1 [Example 4h, [2-(4-Chloro-phenoxy)-ethyl]-[3-(4-fluoro-phenoxy)-propyl]-amine hydrochloride]"
13,10.9,"COC(=O)c1ccc(OCCNCCCOc2ccccc2)cc1 [Example 6a, 4-[2-(3-Phenoxy-propylamino)-ethoxy]-benzoic acid methyl ester]"
14,10.7,"N#Cc1ccc(OCCNCCCOc2ccccc2)cc1 [Example 6b, 4-[2-(3-Phenoxy-propylamino)-ethoxy]-benzonitrile]"
15,103,"Cc1ccc(OCCNCCOc2ccccc2)cc1 [Example 6d, (2-Phenoxy-ethyl)-(2-p-tolyloxy-ethyl)-amine hydrochloride]"
16,74.9,"Cc1ccc(OCCNCCOc2ccc(C)cc2)cc1 [Example 6e, Bis-(2-p-tolyloxy-ethyl)-amine hydrochloride]"
17,5.4,"COc1ccc(OCCNCCCOc2ccccc2)cc1 [Example 9d, [2-(4-Methoxy-phenoxy)-ethyl]-(3-phenoxy-propyl)-amine hydrochloride]"
18,1.3,"Cc1ccc(OCCNCC(O)COc2ccccc2)cc1 (stereo not shown) [Example 16g, 1-Phenoxy-3-(2-p-tolyloxy-ethylamino)-propan-2-ol]"
19,2.1,"OC(CNCCOc1ccc(Cl)cc1)COc1ccccc1 (stereo not shown) [Example 16h, 1-[2-(4-Chloro-phenoxy)-ethylamino]-3-phenoxy-propan-2-ol]"
20,6.1,"Brc1ccc(OCCCNCCOc2ccccc2)cc1 [Example 16i, [3-(4-Bromo-phenoxy)-propyl]-(2-phenoxy-ethyl)-amine hydrochloride]"

# Further lines, the molecule ahead of its results:
row,SMILES,Ki [nM]
1,"COc1ccc(OCCCNCCCOc2ccc(OC)cc2)cc1 [Example 1q, Bis[3-(4-methoxy-phenoxy)-propyl]-amine hydrochloride]",1330
2,"Cc1ccc(OCCNCCCOc2ccccc2)cc1 [Example 2, (3-Phenoxy-propyl)-(2-p-tolyloxy-ethyl)-amine hydrochloride]",0.2
3,"O=[N+]([O-])c1ccc(OCCNCCCOc2ccccc2)cc1 [Example 2a, [2-(4-Nitro-phenoxy)-ethyl]-(3-phenoxy-propyl)-amine hydrochloride]",4.4
4,"CC(C)(C)c1ccc(OCCNCCCOc2ccccc2)cc1 [Example 2b, [2-(4-tert-Butyl-phenoxy)-ethyl]-(3-phenoxy-propyl)-amine hydrochloride]",20.9
5,"CCOc1ccc(OCCNCCCOc2ccccc2)cc1 [Example 2c, [2-(4-Ethoxy-phenoxy)-ethyl]-(3-phenoxy-propyl)-amine hydrochloride]",11.9
6,"c1ccc(OCCCNCCOc2ccc(-c3ccccc3)cc2)cc1 [Example 2e, [2-(Biphenyl-4-yloxy)-ethyl]-(3-phenoxy-propyl)-amine hydrochloride]",383
7,"Cc1ccc(OCCCNCCOc2ccc(C)cc2)cc1 [Example 3, (2-p-Tolyloxy-ethyl)-(3-p-tolyloxy-propyl)-amine hydrochloride]",11.4
8,"Fc1ccc(OCCCNCCOc2ccccc2)cc1 [Example 4, [3-(4-Fluoro-phenoxy)-propyl]-(2-phenoxy-ethyl)-amine hydrochloride]",1.2
9,"Cc1ccc(CCCNCCCOc2ccccc2)cc1 [Example 5, (3-Phenoxy-propyl)-(3-p-tolyl-propyl)-amine hydrochloride]",4.7
10,"Oc1ccc(OCCNCCCOc2ccccc2)cc1 [Example 11, 4-[2-(3-Phenoxy-propylamino)-ethoxy]-phenol hydrobromide]",3.1
11,"O=C(O)c1ccc(OCCNCCCOc2ccccc2)cc1 [Example 15, 4-[2-(3-Phenoxy-propylamino)-ethoxy]-benzoic acid hydrochloride]",> 1000
